Paper PMC11386433 (Journal of Medicinal Chemistry, 2024)
Where two headings read alike, the source gives them in different places.

Tests used:
human μOR = biological target: T1, human μOR (Homo sapiens, UniProt P35372); assay: biochemical; format: binding
T1 construct: host or cells: HEK293T (membrane preparation)

human κOR = biological target: T2, human κOR (Homo sapiens, UniProt P41145); assay: biochemical; format: binding
T2 construct: host or cells: HEK293T (membrane preparation)

wild-type human δOR = biological target: T3, wild-type human δOR (Homo sapiens, UniProt P41143); assay: Single-molecule microscopy of CHO cells transfected with wild-type δOR; format: cell-based
T3 construct: host or cells: CHO-K1
T3 sequence (P41143 whole entry): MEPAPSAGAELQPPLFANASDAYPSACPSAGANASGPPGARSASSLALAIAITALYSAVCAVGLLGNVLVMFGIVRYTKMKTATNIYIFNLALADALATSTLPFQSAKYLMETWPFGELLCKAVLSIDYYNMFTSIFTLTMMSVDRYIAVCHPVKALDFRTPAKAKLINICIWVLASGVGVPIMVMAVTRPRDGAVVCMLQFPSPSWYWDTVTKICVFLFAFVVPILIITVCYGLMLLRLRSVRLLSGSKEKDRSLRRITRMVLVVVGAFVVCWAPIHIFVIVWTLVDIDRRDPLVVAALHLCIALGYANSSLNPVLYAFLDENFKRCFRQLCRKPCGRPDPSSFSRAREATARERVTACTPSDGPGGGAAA

δOR [1] = biological target: T4, δOR (Homo sapiens, UniProt P41143); format: binding; parameters: host or cells: CHO-K1; conditions: labeled with 1 μM
T4 sequence (P41143 whole entry): as above

δOR [2] = biological target: T4, δOR; assay: cell-based; format: cell-based; parameters: host or cells: HEK293T stably expressing EA-β-arrestin-2; conditions: for Emax: HEK-293T, read-out: Emax (agonist properties); for response in agonist mode: β-arrestin-2 recruitment
δOR [3] = biological target: T4, δOR; assay: cell-based; format: cell-based; parameters: Gαqi gift from The J. David Gladstone Institutes; host or cells: HEK293T; conditions: for Emax: HEK-293T, read-out: Emax (agonist properties); for response in agonist mode: IP-One assay
[4] = biological target: T5, δOR (SNAP-opioid receptor) (Homo sapiens, UniProt P41143); assay: HTRF saturation binding of fluorescent ligand to SNAP-opioid receptors on HEK293T cells; conditions: HTRF saturation curve, 1 h room temperature, nonspecific binding with naloxone 100 μM
T5 construct: host or cells: HEK293T
T5 sequence (P41143 whole entry): as above

[5] = biological target: T6, μOR (SNAP-opioid receptor) (Homo sapiens, UniProt P35372); assay: as above
T6 construct: host or cells: HEK293T
T6 sequence (P35372 whole entry): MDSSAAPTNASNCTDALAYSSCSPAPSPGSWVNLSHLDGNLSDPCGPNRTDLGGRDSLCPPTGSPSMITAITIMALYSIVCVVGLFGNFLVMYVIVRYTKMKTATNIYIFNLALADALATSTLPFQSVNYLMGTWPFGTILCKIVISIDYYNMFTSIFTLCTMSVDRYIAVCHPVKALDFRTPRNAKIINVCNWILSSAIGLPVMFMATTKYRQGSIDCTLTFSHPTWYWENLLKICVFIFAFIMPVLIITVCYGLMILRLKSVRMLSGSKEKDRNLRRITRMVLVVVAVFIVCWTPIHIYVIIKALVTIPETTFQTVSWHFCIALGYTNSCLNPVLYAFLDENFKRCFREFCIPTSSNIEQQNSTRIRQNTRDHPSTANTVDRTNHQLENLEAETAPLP

[6] = biological target: T7, κOR (SNAP-opioid receptor) (Homo sapiens, UniProt P41145); assay: as above
T7 construct: host or cells: HEK293T
T7 sequence (P41145 whole entry): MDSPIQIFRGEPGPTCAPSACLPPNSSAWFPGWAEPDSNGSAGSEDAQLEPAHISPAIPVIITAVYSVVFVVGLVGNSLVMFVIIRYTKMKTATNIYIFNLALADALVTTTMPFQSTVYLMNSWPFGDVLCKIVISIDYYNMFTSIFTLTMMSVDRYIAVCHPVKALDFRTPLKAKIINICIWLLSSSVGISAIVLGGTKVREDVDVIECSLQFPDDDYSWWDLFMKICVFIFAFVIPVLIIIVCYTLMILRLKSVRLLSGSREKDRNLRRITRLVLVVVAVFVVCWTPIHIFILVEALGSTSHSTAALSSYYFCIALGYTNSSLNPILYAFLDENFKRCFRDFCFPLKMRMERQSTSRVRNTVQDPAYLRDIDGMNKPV

[7] = HTRF saturation curve, value of high uncertainty, saturation not reached
[8] = selectivity ratio of HTRF Kd values, high uncertainty

T2 sequence (P41145 whole entry): as above
T1 sequence (P35372 whole entry): as the sequence (P35372 whole entry) above

CN1/C(=C/C=C/C2=[N+](CCCCCC(=O)NCC(=O)NCC(=O)NCC(=O)NCC(=O)Nc3cccc4c5c([nH]c34)[C@@H]3Oc4c(O)ccc6c4[C@@]34CCN(CC3CC3)[C@H](C6)[C@]4(O)C5)c3ccc(S(=O)(=O)[O-])cc3C2(C)C)C(C)(C)c2cc(S(=O)(=O)O)ccc21 [6-Cy3, 1-(1-(((4bS,8R,8aS,14bR)-7-(cyclopropylmethyl)-1,8a-dihydroxy-5,6,7,8,8a,9,14,14b-octahydro-4,8-methanobenzofuro[2,3-a]pyrido[4,3-b]carbazol-13-yl)amino)-1,4,7,10,13-pentaoxo-3,6,9,12-tetraazaoctadecan-18-yl)-3,3-dimethyl-2-((E)-3-((E)-1,3,3-trimethyl-5-sulfoindolin-2-ylidene)prop-1-en-1-yl)-3H-indol-1-ium-5-sulfonate]
Ki (human μOR): 370 nM | μ/δ (human μOR): 220 | Ki (human κOR): 330 nM | κ/δ (human κOR): 190 | time after labeling at which labeled δOR molecules could still be observed diffusing on the plasma membrane (wild-type human δOR): 2 to 3 h | wash resistance (δOR [1]; after 15 min of medium wash out): 69 ± 1% | IC50 (δOR [2]): 47 nM | Emax (δOR [2]): < 5% | response in agonist mode (δOR [2]): did not elicit a response | IC50 (δOR [3]): 38 nM | Emax (δOR [3]): < 10% | response in agonist mode (δOR [3]): did not elicit a response

CN1/C(=C/C=C/C=C/C2=[N+](CCCCCC(=O)NCC(=O)NCC(=O)NCC(=O)NCC(=O)Nc3cccc4c5c([nH]c34)[C@@H]3Oc4c(O)ccc6c4[C@@]34CCN(CC3CC3)[C@H](C6)[C@]4(O)C5)c3ccc(S(=O)(=O)[O-])cc3C2(C)C)C(C)(C)c2cc(S(=O)(=O)O)ccc21 [6-Cy5, 1-(1-(((4bS,8R,8aS,14bR)-7-(cyclopropylmethyl)-1,8a-dihydroxy-5,6,7,8,8a,9,14,14b-octahydro-4,8-methanobenzofuro[2,3-a]pyrido[4,3-b]carbazol-13-yl)amino)-1,4,7,10,13-pentaoxo-3,6,9,12-tetraazaoctadecan-18-yl)-3,3-dimethyl-2-((1E,3E)-5-((E)-1,3,3-trimethyl-5-sulfoindolin-2-ylidene)penta-1,3-dien-1-yl)-3H-indol-1-ium-5-sulfonate]
Kd [4]: 1.8 ± 0.8 nM | Kd [5, 7]: 215 ± 262 nM | μ/δ [5, 8]: 120 | Kd [6, 7]: 226 ± 131 nM | κ/δ [6, 8]: 126 | Ki (human μOR): 100 nM | μ/δ (human μOR): 83 | Ki (human κOR): 78 nM | κ/δ (human κOR): 65 | wash resistance (δOR [1]; after 20 min of medium wash out): 93 ± 1% | IC50 (δOR [2]): 33 nM | Emax (δOR [2]): < 5% | response in agonist mode (δOR [2]): did not elicit a response | IC50 (δOR [3]): 54 nM | Emax (δOR [3]): < 5% | response in agonist mode (δOR [3]): did not elicit a response
